# Laboratory results: patent EP2601963B1, “N-ISOVALEROYL-L-GLUTAMYL-L-TRYPTOPHAN AS AN AGENT INHIBITING THE FORMATION OF ULCERS IN THE STOMACH AND THE DUODENUM” (Obshestvo S Ogranichennoj Otvetstvennostju "CytoNIR", priority 2010, dated 2015)
# Columns and labels:
# [1] = tested on: stress-induced gastric ulcers; experiment: Water-immersion stress model: gastric lesions, preventive treatment; format: in vivo, male Wistar rats; conditions: 200 mg/kg + stress
# Protocol: (§1) All studies were conducted on male Wistar rats weighing 220 ± 20 g, obtained from Rappolovo nursery (Leningrad oblast). For 14 days prior to the experiment, the animals were held in isolation. The animals were handled in accordance with the European Convention for the Protection of Vertebrate Animals used for Experimental and Other Scientific Purposes (Strasburg, 1986). The animals were held in standard plastic cages and fed a standard diet of PK120-3 (granulated feed in accordance with order # 1179 M3 USSR 10/10/1983) with a free access to water.
# In each series, the animals were divided into experimental and control groups with 10 rats per group. The animals in the experimental groups were orally administered the claimed preparation or a comparator drug, and the control group animals received distilled water in the same amount.
# The experimental animals were divided into 5 groups, 10 animals each. The animals received the following therapy: • control group received distilled water per os; • experimental group 1 received 0.1 mkg/kg N-isovaleroyl-L-glutamyl-L-tryptophan; • experimental group 2 received 10 mkg/kg N-isovaleroyl-L-glutamyl-L-tryptophan; […]; • experimental group 4 received 50 mkg/kg of the comparator drug Misoprostol;
# The experiment was conducted as follows: • The proposed drug, comparator drugs, and distilled water were administered once daily over 7 days, and on the day of the ulcerogenic stress induction one hour prior to the stress.
# The rats deprived of food for 18 hrs. were placed into special cases and immersed in water vertically to the level of their xyphoids. The animals were held in this position for 5 hrs. at 23° C water temperature. After that, the animals were removed from the experiment.
# (§2) Animals' body weight changes were monitored throughout the experiment. The experimental animals were then sacrificed by decapitation, and their blood was collected in test tubes. The stomachs were extracted, dissected along the major curve, rinsed with cold saline solution, and the mucosa was carefully examined through a magnifying glass under bright lights. The mucosa was inspected for color, the presence of hyperemia and its intensity. The number of lesions, which were differentiated into small round (less than 1 mm), linear, and large lesions (more than 1mm) and the size of the area they covered were calculated. The average number of lesions per one animal in a group and the percentage of animals with ulcers were also calculated. Pauls Index (PI) was used as an integral indicator of the number of lesions and was calculated as follows: • PI = average number of lesions in a group x % of animals with lesions/100 [Pauls F., Wick A.M.,Mac. Key E.M. et al. An assau method for anti ulcer substances // Gastroenterology.- 1947. #8.- p.p.774 - 782]. Ulcer index UI was calculated as: UI = average lesion area size in the group x % of animals with lesions/100; gastroprotective activity GA1 was calculated as: GA1 = PI of the control group/PI of the experimental group, GA2 = UI of the control group/UI of the experimental group. The proposed drug was considered active when GA ≥ 2.
# [2] = tested on: indomethacin-induced gastric ulcers; experiment: Indomethacin-induced ulcer model, preventive treatment: gastric lesions; format: in vivo, male Wistar rats; set-up: key to GA1 (gastroprotective activity calculated for number of lesions): GA1 = PI of control group / PI of experimental group; key to GA2 (gastroprotective activity calculated for lesion size): GA2 = UI of control group / UI of experimental group; key to Ulcer Index: UI = average lesion area size x % of animals with lesions/100; Small round Size / Total Size / Large round Size / Linear Size / Lesion Size: unit not given here
# Protocol: as §1, §2
# Five groups of 10 animals per group were prepared for the experiment as described in Example 1.
# In each series of experiments, the animals were divided into experimental and control groups at 10 animals per group. The animals in the experimental group were orally administered the proposed medication or a comparator drug, and the control animals were given distilled water in the same amount. • control group received distilled water per os; • experimental group 1 received 0.1 mkg/kg N-isovaleroyl-L-glutamyl-L-tryptophan; • experimental group 2 received 10 mkg/kg N-isovaleroyl-L-glutamyl-L-tryptophan; • experimental group 3 received 200 mkg/kg of the comparator drug Sucralfate.
# The efficacy of the course of preventive treatment with the claimed composition was evaluated 24 hrs. post indomethacin administration. The study was conducted as in Example 1.
# [3] = 200 mg/kg + stress (so in the source)
# [4] = 200 mg/kg, indomethacin-induced ulcers
substance,measurement,setting,value
aluminum complex of beta-D-fructofuranosyl-alpha-D-glucopyranoside octakis (hydrosulfate) [Sucralfate],# Lesions,[1],8.8 ± 1.4
same,% Animals with Ulcers,[1],90%
same,GA1 (gastroprotective activity calculated for number of lesions),[1],2.79
same,GA2 (gastroprotective activity calculated for lesion size),[1],2.99
same,Large round Amt.,[1],3.9 ± 0.8
same,Large round Size,[1],2.4 ± 0.6
same,Lesion Size,[1],7.5 ± 1.5
same,Linear Amt.,[1],2.5 ± 0.6
same,Linear Size,[1],4.5 ± 1.0
same,Pauls Index,[1],7.92
same,Small round Amt.,[1],2.4 ± 0.7
same,Small round Size,[1],0.7 ± 0.2
same,Total Amt.,[1],8.8 ± 1.4
same,Total Size,[1],7.5 ± 1.5
same,Ulcer Index,[1],6.75
same,# Lesions,[2]; [3],5.4 ± 1.4
same,% Animals with Ulcers,[2]; [3],80%
same,GA1 (gastroprotective activity calculated for number of lesions),[2]; [3],4.93
same,GA2 (gastroprotective activity calculated for lesion size),[2]; [3],8.56
same,Lesion Size,[2]; [3],3.3 ± 1.2
same,PI,[2]; [3],4.32
same,Ulcer Index,[2]; [3],2.64
same,Large round Amount,[2]; [4],2.4 ± 0.8
same,Large round Size,[2]; [4],1.0 ± 0.4
same,Linear Amount,[2]; [4],1.2 ± 0.4
same,Linear Size,[2]; [4],1.8 ± 0.9
same,Small round Amount,[2]; [4],1.8 ± 0.6
same,Small round Size,[2]; [4],0.5 ± 0.2
same,Total Amount,[2]; [4],5.4 ± 1.4
same,Total Size,[2]; [4],3.3 ± 1.2
